Reference: US9512128B2 (BAYER CROPSCIENCE AG, priority 2012, dated 2016)
Read-outs that look alike come from different tables or passages of the source.

Key:
[1] = log P by HPLC on reversed-phase columns (C 18), EEC directive 79/831 Annex V.A8; type: physicochemical; details: for logP[a]: method [a]; for logP[b]: method [b]; for chromatographic logP: reversed-phase C18 HPLC column
In short: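 Measured by reversed-phase C18 HPLC (LC-MS) with a linear 10→95% acetonitrile gradient. Acidic: pH 2.7, 0.1% formic acid. Neutral: pH 7.8, 0.001 M ammonium bicarbonate.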

[2] = test system: greenhouse red spider mite (Tetranychus urticae); experiment: Tetranychus urticae spray test, OP-resistant (TETRUR); type: in vivo; details: application rate 500 g/ha, after 6 days, bean leaf discs
In short: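 Bean leaf discs infested with all stages of an OP-resistant strain are sprayed with compound in acetone/DMF with alkylaryl polyglycol ether emulsifier, diluted in water; % mortality after 6 days (100% = all mites killed).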

[3] = test system: cattle ticks (Boophilus microplus); experiment: Boophilus microplus injection test (BOOPMI Inj); type: in vivo; details: 20 μg/animal, injection into the abdomen, assessed after 7 days
Method: 6. Boophilus microplus Injection Test (BOOPMI Inj)
• Solvent: dimethyl sulphoxide
To produce a suitable preparation of active compound, 10 mg of active compound are mixed with 0.5 ml of solvent, and the concentrate is diluted with solvent to the desired concentration.
1 μl of the active compound solution is injected into the abdomen of 5 fed adult female cattle ticks (Boophilus microplus). The animals are transferred into dishes and kept in a climate-controlled room.
The activity is assessed after 7 days by laying of fertile eggs. Eggs whose fertility is not visible from the outside are stored in a climate-controlled cabinet until the larvae hatch after about 42 days. An efficacy of 100% means that none of the ticks has laid any fertile eggs; 0% means that all eggs are fertile.

[4] = test system: larvae of the mustard beetle (Phaedon cochleariae); experiment: Phaedon cochleariae spray test (PHAECO); type: in vivo; details: application rate 500 g/ha, after 7 days, Chinese cabbage leaf discs
Method: 2. Phaedon cochleariae Spray Test (PHAECO)
(§1) • Solvents: 78.0 parts by weight of acetone • 1.5 part by weight of dimethylformamide • Emulsifier: 0.5 part by weight of alkylaryl polyglycol ether
(§2) To produce a suitable preparation of active compound, 1 part by weight of active compound is mixed with the stated amounts of solvents and emulsifier, and the concentrate is diluted with emulsifier-containing water to the desired concentration.
After 7 days, the efficacy in % is determined. 100% means that all of the beetle larvae have been killed; 0% means that none of the beetle larvae have been killed.

[5] = test system: caterpillars of the armyworm (Spodoptera frugiperda); experiment: Spodoptera frugiperda spray test (SPODFR); type: in vivo; details: application rate 500 g/ha, after 7 days, maize leaf discs
Method: 3. Spodoptera frugiperda Spray Test (SPODFR)
as §1, §2
Leaf discs of maize (Zea mays) are sprayed with an active compound preparation of the desired concentration and, after drying, populated with caterpillars of the armyworm (Spodoptera frugiperda).
After 7 days, the efficacy in % is determined. 100% means that all of the caterpillars have been killed; 0% means that none of the caterpillars have been killed.

[6] = test system: southern root-knot nematode (Meloidogyne incognita); experiment: Meloidogyne incognita test (MELGIN); type: in vivo; details: application rate 20 ppm, after 14 days, lettuce
In short: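 Compound in acetone diluted with water, added to sand with M. incognita egg/larvae suspension and lettuce seeds. Root galls assessed after 14 days; effect in % where 100% means no galls and 0% equals untreated control.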

[7] = test system: green peach aphid (Myzus persicae); experiment: Myzus persicae spray test (MYZUPE); type: in vivo; details: application rate 500 g/ha, after 6 days, Chinese cabbage leaf discs
Method: 1. Myzus persicae Spray Test (MYZUPE)
• Solvents: 78 parts by weight of acetone • 1.5 part by weight of dimethylformamide • Emulsifier: 0.5 part by weight of alkylaryl polyglycol ether
as §2
Discs of Chinese cabbage leaves (Brassica pekinensis) infested by all stages of the green peach aphid (Myzus persicae) are sprayed with an active compound preparation of the desired concentration.
After 6 days, the efficacy in % is determined. 100% here means that all of the aphids have been killed; 0% means that no aphids have been killed.

[8] = pH 2.7, acidic range, pH 2.7, 0.1% aqueous formic acid / acetonitrile, read-out: log P[a]
[9] = pH 2.7, method [a], read-out: logP[a]
[10] = pH 7.8, method [b], read-out: logP[b]
[11] = pH 7.8, neutral range, pH 7.8, 0.001 molar aqueous ammonium bicarbonate / acetonitrile, read-out: log P[b]

Structure (SMILES) | logP[a] [1] | logP[b] [1] | efficacy in % (spider mites killed) [2] [%] | efficacy in % (laying of fertile eggs) [3] [%] | efficacy in % (beetle larvae killed) [4] [%] | efficacy in % (caterpillars killed) [5] [%] | chromatographic logP [1, 8] | chromatographic logP [1, 9] | chromatographic logP [1, 10] | chromatographic logP [1, 11] | nematicidal effect in % (formation of galls) [6] [%] | efficacy in % (aphids killed) [7] [%]
Cc1ccc(-n2cnc3c(cnn3C)c2=O)cc1[S+]([O-])CC(F)(F)F (racemic) [Compound 27] | 1.57 | 1.57 | 90 | 100 |  |  |  |  |  |  |  | 
Cc1ccc(-n2cnc3c(c(C)nn3C)c2=O)cc1[S+]([O-])CC(F)(F)F (racemic) [Compound 33] | 1.79 | 1.75 | 90 |  | 100 | 100 |  |  |  |  |  | 
Cc1cc(F)c(-n2cnc3c(cnn3C)c2=O)cc1[S+]([O-])CC(F)(F)F (centres unmarked) [Compound 2, 5-{2-Fluoro-4-methyl-5-[(2,2,2-trifluoroethyl)sulphinyl]phenyl}-1-methyl-1,5-dihydro-4H-pyrazolo[3,4-d]pyrimidin-4-one] |  |  | 100 | 100 | 100 |  | 1.73 | 1.73 | 1.69 | 1.69 |  | 
Cc1cc(F)c(-n2c(C)nc3c(cnn3C)c2=O)cc1[S+]([O-])CC(F)(F)F (centres unmarked) [Compound 15, 5-{2-Fluoro-4-methyl-5-[(2,2,2-trifluoroethyl)sulphinyl]phenyl}-1,6-dimethyl-1,5-dihydro-4H-pyrazolo[3,4-d]pyrimidin-4-one] |  |  | 90 | 100 |  |  | 1.85 | 1.85 | 1.84 | 1.84 | 90 | 
Cc1nn(C)c2ncn(-c3ccc(Cl)c(SCC(F)(F)F)c3)c(=O)c12 [Compound 36] | 2.82 | 2.79 |  |  | 100 | 83 |  |  |  |  |  | 
Cc1cc(F)c(-n2cnc3cnn(C)c3c2=O)cc1[S+]([O-])CC(F)(F)F (centres unmarked) [Compound 40] | 1.82 | 1.81 | 90 | 100 |  |  |  |  |  |  | 100 | 
Cc1cc(F)c(-n2c(C)nc3cnn(C)c3c2=O)cc1[S+]([O-])CC(F)(F)F (centres unmarked) [Compound 41] | 1.90 | 1.88 | 100 | 100 |  |  |  |  |  |  | 90 | 
Cc1c2c(=O)n(-c3ccc(C(F)(F)F)c([S+]([O-])CC(F)(F)F)c3)cnc2nn1C (centres unmarked) [Compound 46] | 2.11 | 2.07 |  |  | 100 | 100 |  |  |  |  | 90 | 
CCn1cnc2c(=O)n(-c3cc(SCC(F)(F)F)c(C)cc3F)cnc21 [Compound 53] | 2.46 | 2.41 | 90 |  |  |  |  |  |  |  | 100 | 90
Cc1cc(F)c(-n2cnc3scnc3c2=O)cc1[S+]([O-])CC(F)(F)F (centres unmarked) [Compound 61] | 1.57 | 1.56 | 90 | 100 | 100 |  |  |  |  |  | 90 | 
Cc1nc2c(=O)n(-c3cc([S+]([O-])CC(F)(F)F)c(C)cc3F)cnc2s1 (centres unmarked) [Compound 73] | 1.80 | 1.77 | 100 | 100 |  |  |  |  |  |  | 90 | 
Cc1cc(F)c(-n2cnc3ncsc3c2=O)cc1[S+]([O-])CC(F)(F)F (centres unmarked) [Compound 79] | 1.60 | 1.57 | 100 | 100 |  |  |  |  |  |  | 90 | 
COc1ccc(-n2cnc3sccc3c2=O)cc1[S+]([O-])CC(F)(F)F (centres unmarked) [Compound 89] | 1.91 | 1.91 |  | 100 | 100 |  |  |  |  |  | 90 | 
CCn1ncc2c(=O)n(-c3cc(SCC(F)(F)F)c(C)cc3F)c(C)nc21 [Compound 125] |  |  | 100 |  |  |  |  |  |  |  |  | 100
Cc1cc(F)c(-n2cnc3c(C)nn(C)c3c2=O)cc1[S+]([O-])CC(F)(F)F (centres unmarked) [Compound 129] |  |  | 90 | 100 |  |  |  |  |  |  | 90 | 
Cc1cc(C)c([S+]([O-])CC(F)(F)F)cc1-n1cnc2cnn(C)c2c1=O (centres unmarked) [Compound 134] |  |  | 100 | 100 |  |  |  |  |  |  | 100 | 
Cc1cc(F)c(-n2cnc3nn(C)c(C)c3c2=O)cc1[S+]([O-])CC(F)(F)F (centres unmarked) [Compound 172] |  |  | 90 | 100 |  |  |  |  |  |  |  | 90
Cc1cc(F)c(-n2c(C)nc3nn(C)cc3c2=O)cc1[S+]([O-])CC(F)(F)F (centres unmarked) [Compound 175] |  |  | 100 |  |  |  |  |  |  |  |  | 100
Cc1cc(F)c(-n2cnc3snc(C)c3c2=O)cc1[S+]([O-])CC(F)(F)F (centres unmarked) [Compound 204] |  |  | 90 | 100 | 83 |  |  |  |  |  | 100 | 
Cc1cc(F)c(-n2nnc3snc(C)c3c2=O)cc1SCC(F)(F)F [Compound 205] |  |  | 100 |  | 100 | 100 |  |  |  |  |  | 
Cc1cc(F)c(-n2nnc3snc(C)c3c2=O)cc1[S+]([O-])CC(F)(F)F (centres unmarked) [Compound 206] |  |  | 100 |  | 100 | 100 |  |  |  |  | 100 | 
